Experimental data: patent publication US20240082277A1, “MODIFIED ANTIHISTAMINE COMPOSITION AND ANTIVIRAL TREATMENT” (priority 2022, published 2024)
≈ marks a conversion by molar mass, not a printed value. Structures can show the parent of a compound that is named as a salt. Where two headings read alike, the source gives them in different places.

How the values were obtained:
[1] = target: T1, human H1 histamine receptors (HRH1) (Homo sapiens, UniProt P35367); test: HRH1 antagonist calcium flux assay (Fluo-8, FLIPR TETRA) in CHO-K1 cells; type: cell-based
T1 construct: expressed in transfected cells; host or cells: CHO-K1

[2] = system: SARS-CoV-2 Delta (B.1.617.2)
[3] = system: SARS-CoV-2 Delta (B.1.617.2); test: microbe, parasite or virus in culture
[4] = in vitro; details: African green monkey, Cytotoxicity (CC50)
[5] = system: SARS-CoV-2 Omicron (B.1.1.529); test: microbe, parasite or virus in culture
[6] = system: SARS-CoV-2 Omicron (B.1.1.529)
[7] = system: Vero E6 TMPRSS2 cells
[8] = CHO-K1, read-out: Normalized % Inhibition
[9] = Severe acute respiratory syndrome coronavirus 2, VeroE6/TMPRSS2, read-out: % cell viability

T1 sequence (P35367 whole entry): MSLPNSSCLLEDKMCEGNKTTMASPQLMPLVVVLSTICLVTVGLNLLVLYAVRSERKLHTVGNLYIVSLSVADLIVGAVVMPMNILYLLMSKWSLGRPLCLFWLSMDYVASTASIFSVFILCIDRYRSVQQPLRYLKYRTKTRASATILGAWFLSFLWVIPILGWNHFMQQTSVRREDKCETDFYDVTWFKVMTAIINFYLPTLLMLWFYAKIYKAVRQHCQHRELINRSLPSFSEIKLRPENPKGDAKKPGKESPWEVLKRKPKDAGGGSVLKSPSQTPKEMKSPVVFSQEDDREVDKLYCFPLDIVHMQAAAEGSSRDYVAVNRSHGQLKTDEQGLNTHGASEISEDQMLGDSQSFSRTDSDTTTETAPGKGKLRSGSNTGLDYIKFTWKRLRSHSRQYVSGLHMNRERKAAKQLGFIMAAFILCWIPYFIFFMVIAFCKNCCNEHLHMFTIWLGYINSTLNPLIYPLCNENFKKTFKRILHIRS

O=C(O)COCCN1CCN(C(c2ccccc2)c2ccc(Cl)cc2)CC1 (stereo not shown) [Cetirizine Dihydrochloride]
inhibition at 0.01 µM [1, 8]: 23.9%
inhibition at 0.03 µM [1, 8]: 23.6%
inhibition at 0.1 µM [1, 8]: 15.3%
inhibition at 0.3 µM [1, 8]: 14.2%
inhibition at 1 µM [1, 8]: 31.3%
inhibition at 3 µM [1, 8]: 67.3%
inhibition at 10 µM [1, 8]: 98.9%
inhibition at 100 µM [1, 8]: 99.3%
inhibition at 30 µM ([1]; CHO-K1, 30000 nM, antagonist assay vs 70 nM histamine, read-out: Normalized % Inhibition): 100%

CN(C)CCOC(c1ccccc1)c1ccccc1 [Diphenhydramine hydrochloride, reference compound]
Effect on percentage infection (in words) [2]: slight reduction in percentage infection was seen
Effect on percentage infection (in words) ([2]; Therapeutic treatment, Delta strain): slight reduction in percentage infection was seen

NCCc1c[nH]cn1 [Histamine]
RLU (maximum Relative Light Unit) [1]: 3431.5 RLU

CN(C)CCO[Si](C)(c1ccccc1)c1ccccc1 [Q-Ant #8, N,N-dimethyl-2-((methyldiphenylsilyl)oxy)ethan-1-amine]
viability at 0.318 µg/mL [3, 9]: 102%
viability at 1.004 µg/mL [3, 9]: 93.9%
viability at 3.174 µg/mL [3, 9]: 95%
viability at 10.029 µg/mL [3, 9]: 100%
viability at 31.691 µg/mL [3, 9]: 99.4%
viability at 100.144 µg/mL [3, 9]: 98.2%
viability at 316.456 µg/mL [3, 9]: 73.5%
IC50 [1]: 33.5 nM
inhibition at 1 µM [1, 8]: 97.7%
inhibition at 0.0003 µM ([1]; CHO-K1, 0.3 nM, antagonist assay vs 70 nM histamine, read-out: Normalized % Inhibition): -32.6%
inhibition at 0.001 µM ([1]; CHO-K1, 1 nM, antagonist assay vs 70 nM histamine, read-out: Normalized % Inhibition): -33.4%
inhibition at 0.003 µM ([1]; CHO-K1, 3 nM, antagonist assay vs 70 nM histamine, read-out: Normalized % Inhibition): -31%
inhibition at 0.01 µM ([1]; CHO-K1, 10 nM, antagonist assay vs 70 nM histamine, read-out: Normalized % Inhibition): -11.9%
inhibition at 0.03 µM ([1]; CHO-K1, 30 nM, antagonist assay vs 70 nM histamine, read-out: Normalized % Inhibition): 29.4%
inhibition at 0.1 µM ([1]; CHO-K1, 100 nM, antagonist assay vs 70 nM histamine, read-out: Normalized % Inhibition): 72.9%
inhibition at 0.3 µM ([1]; CHO-K1, 300 nM, antagonist assay vs 70 nM histamine, read-out: Normalized % Inhibition): 97.1%
CC50 [4]: 613 µg/mL (≈ 2150 µM)
viability at 0.318 µg/mL [5, 9]: 105%
viability at 1.004 µg/mL [5, 9]: 91.3%
viability at 3.174 µg/mL [5, 9]: 96.8%
viability at 10.029 µg/mL [5, 9]: 105%
viability at 31.691 µg/mL [5, 9]: 101%
viability at 100.144 µg/mL [5, 9]: 89.8%
viability at 316.456 µg/mL [5, 9]: 36.8%
Effect on percentage infection (in words) [6]: reduction in percentage infection was seen
Efficacy (EC50) Omicron [6]: 245.6 µg/mL
Selectivity index Omicron (CC50/EC50) ([6]; Therapeutic treatment): 1.69
Cytotoxicity (CC50) ([7]; African green monkey): 415.3 µg/mL
Toxicity (in words) ([7]; compared with traditional antihistamines): less toxic than traditional antihistamines
Effect on percentage infection (in words) [2]: No effect was seen
Efficacy (EC50) Delta [2]: 483.0 µg/mL
Selectivity index Delta (CC50/EC50) ([2]; Therapeutic treatment): 0.86

CCC(CC)COC(=O)[C@H](C)N[P@](=O)(OC[C@H]1O[C@@](C#N)(c2ccc3c(N)ncnn23)[C@H](O)[C@@H]1O)Oc1ccccc1 [Remdesivir]
viability at 0.004 µg/mL [3, 9]: 105%
viability at 0.012 µg/mL [3, 9]: 91.3%
viability at 0.038 µg/mL [3, 9]: 96.8%
viability at 0.12 µg/mL [3, 9]: 105%
viability at 0.38 µg/mL [3, 9]: 101%
viability at 1.202 µg/mL [3, 9]: 89.8%
viability at 3.797 µg/mL [3, 9]: 36.8%
EC50 ([3]; Severe acute respiratory syndrome coronavirus 2, VeroE6/TMPRSS2, read-out: Efficacy (EC50) Delta): ~3 µg/mL (≈ 4.98 µM)
viability at 0.004 µg/mL [5, 9]: 101%
viability at 0.012 µg/mL [5, 9]: 95.9%
viability at 0.038 µg/mL [5, 9]: 106%
viability at 0.12 µg/mL [5, 9]: 105%
viability at 0.38 µg/mL [5, 9]: 92.8%
viability at 1.202 µg/mL [5, 9]: 84.1%
viability at 3.797 µg/mL [5, 9]: 44.6%
viability at 12 µg/mL [5, 9]: 20.7%
EC50 ([5]; Severe acute respiratory syndrome coronavirus 2, VeroE6/TMPRSS2, read-out: Efficacy (EC50) Omicron): ~3 µg/mL (≈ 4.98 µM)
